# Test results reported in patent US6399568B1, “Cyclic tetrapeptide derivatives and medicinal use thereof” (Japan Energy Corporation, priority 1997, dated 2002).
# Non-standard residues stand in square brackets, D forms with d. Residues, ends and D or L forms follow the SMILES beside them. *: point of attachment. Asu = N[C@@H](CCCCCC(=O)O)C(=O)O; NHOH = ON*
# Molecular target: histone deacetylase
# Assay: Histone deacetylase enzyme inhibiting activity, synthetic peptide substrate
# Assay type: biochemical, mouse
# Conditions: enzyme from B16/BL6 cells; [3H]acetylated histone H4 peptide; 37° C. 3 hours
# Experimental: The preparation of histone deacetylase was performed essentially according to the method of Yoshida et al. (J. Biol. Chem., 265,17174-17179, 1990). The enzyme to be used was partially purified from B16/BL6 cells. The cells were suspended in HDA buffer (15 mM potassium phosphate, 5% glycerol, 0.2 mM EDTA, […], pH 7.5), homogenized and centrifuged (2500×g, 10 min) to collect the nuclei, which in turn were homogenized in the same buffer containing 1 M (NH4)2SO4. After ultrasonic disruption and centrifugation, the concentration of (NH4)2SO4 in the collected supernatant was increased to 3.5 M to precipitate histone deacetylase. This precipitate was redissolved in HDA buffer, subjected to gel filtration to replace the solvent with HDA buffer, and used as a crude histone deacetylase enzyme solution.
# As a substrate, a synthetic substrate peptide, [^3H]acetylated histone H4 peptide was used. This [^3H]acetylated histone H4 peptide was obtained by synthesizing the N-terminal peptide of histone H4; […] (the C-terminal being cysteine) and radio-acetylating with ^3H -acetic anhydride.
# An assay was performed by incubating the synthetic substrate solution and the enzyme solution at 37° C. for 3 hours in the presence of a compound to be tested (reaction volume, 100 μl). The reaction was stopped by adding 25 μl of 1 M HCl and 0.2 M acetic acid and [^3H]acetate excised by the enzyme reaction was extracted with ethyl acetate for radioactivity measurement. As a control group, the same procedure was repeated without addition of any test compound to the reaction system. The inhibiting activity was expressed by a concentration at which the histone deacetylase enzyme activity in the control group was inhibited by 50% (50% inhibiting concentration).
compound,measurement,value
"CC[C@H](C)[C@@H]1NC(=O)[C@@H](Cc2ccc(OC)cc2)NC(=O)[C@H](CCCCCC(=O)NO)NC(=O)[C@H]2CCCN2C1=O [HDA-31, cyclo(-L-Asu(NHOH)-D-Tyr(Me)-L-Ile-D-Pro-)] (cyclo([Asu](NHOH)[dY](Me)I[dP]))",IC50,3.32 nM
